Measured values taken from patent US8337828B2, “Use of thymosin alpha 1, alone or in combination with PTX3 or ganciclovir, for the treatment of cytomegalovirus infection” (priority 2006, dated 2012).
Ends that are not written are not given here.

Legend:
MCMV = MCMV viral load in TLR-deficient mice (plaque assay); type: in vivo, C57BL6, TLR4-/-, TLR9-/- and MyD88-/- mice; conditions: 200 μg/kg for a week
Procedure: Viral load (FIG. 4a) and cytokine production (FIG. 4b) in C57BL6, TLR4−/−, TLR9−/− and MyD88−/− mice infected with 5×10^5 PFU of MCMV and treated with 200 μg/kg Tα1 for a week. Virus titers, expressed as log 10, were quantified on MEF cells by standard plaque assay on infected tissues removed a week after infection and treatment. Cytokine (pg/ml) levels in culture supernatants of spleen cells were determined by ELISA assay. Bars indicate the standard errors. *P<0.05, Tα1-treated vs untreated mice. Results are representative of 3 independent experiments. Mice. Wild-type (WT) inbred C57BL6 and BALB/c mice, 8 to 12 weeks old, were purchased from Charles River Breeding Laboratories (Calco, Italy). Pairs of homozygous TLR9-(TLR9−/−), TLR4-(TLR4−/−), and MyD88-(MyD88−/−)-deficient mice (on the C57BL6 background), were bred under specific pathogen-free conditions at the breeding facilities of the University of Perugia, Perugia, Italy. Experiments were performed following protocols approved by the institutional animal committee and in accordance with European Economic Community Council Directive as well as institutional animal care and use guidelines. Plaque assay. Plaque assay was determined on cells grown to subconfluence and incubated with serially diluted virus samples for 2 h at 37° C. (10). All organs from uninfected animals were negative viruses. Virus titers are expressed as log 10 (mean±standard errors, SE).

[1] = test system: human non-small cell lung cancer ("NSCLC") cells; conditions: subcutaneous administration; cited from earlier work

Ac-Ser-Asp-Ala-Ala-Val-Asp-Thr-Ser-Ser-Glu -Ile-Thr-Thr-Lys-Asp-Leu-Lys-Glu-Lys-Lys-Glu-Val-Glu-Glu-Ala-Glu-Asn-O (Ac-SDAAVDTSSEITTKDLKEKKEVEEAEN) [Thymosin alpha 1, acidic peptide present in thymus extract with immunoregulatory properties]
antiviral effect (viral load) (MCMV; C57BL6 mice): effective | antiviral effect (viral load) (MCMV; MyD88-/- mice): completely ineffective | antiviral effect (viral load) (MCMV; TLR4-/- mice): effective | antiviral effect (viral load) (MCMV; TLR9-/- mice): completely ineffective | tumor volume [1]: significantly decreased tumor volume
